{"source": "BindingDB's records for doi:10.1016/j.chembiol.2004.03.022", "about": "(Cyclacel, 2004)", "assay_in_all_cases": "Kinase Inhibition Assay", "key": {"[1]": {"molecular_target": "Cyclin-dependent kinase 4 (Homo sapiens, UniProt P11802)", "sequence (P11802 whole entry)": "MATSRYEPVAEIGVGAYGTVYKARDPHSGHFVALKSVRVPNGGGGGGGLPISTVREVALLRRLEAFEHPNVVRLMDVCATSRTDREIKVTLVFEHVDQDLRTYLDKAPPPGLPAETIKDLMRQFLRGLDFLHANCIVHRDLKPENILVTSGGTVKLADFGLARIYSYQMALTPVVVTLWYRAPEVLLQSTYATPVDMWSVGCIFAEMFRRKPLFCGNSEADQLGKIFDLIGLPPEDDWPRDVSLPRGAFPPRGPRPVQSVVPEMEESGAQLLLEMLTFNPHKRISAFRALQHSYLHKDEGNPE", "excerpt": "(§1) In vitro kinase inhibition assay."}, "[2]": {"molecular_target": "Cyclin-dependent kinase 2 (Homo sapiens, UniProt P24941)", "excerpt": "as §1"}, "G1/S-specific cyclin-D1": {"molecular_target": "G1/S-specific cyclin-D1 (Homo sapiens, UniProt P24385)", "sequence (P24385 whole entry)": "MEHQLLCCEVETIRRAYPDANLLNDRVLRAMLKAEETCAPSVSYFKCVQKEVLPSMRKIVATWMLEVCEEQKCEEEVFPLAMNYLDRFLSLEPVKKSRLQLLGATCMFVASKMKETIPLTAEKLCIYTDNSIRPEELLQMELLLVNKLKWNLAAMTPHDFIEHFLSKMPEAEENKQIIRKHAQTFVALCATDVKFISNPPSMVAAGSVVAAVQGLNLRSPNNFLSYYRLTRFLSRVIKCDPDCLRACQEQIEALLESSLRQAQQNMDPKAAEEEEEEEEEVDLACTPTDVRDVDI", "excerpt": "as §1"}, "G1/S-specific cyclin-E1": {"molecular_target": "G1/S-specific cyclin-E1 (Homo sapiens, UniProt P24864)", "sequence (P24864 whole entry)": "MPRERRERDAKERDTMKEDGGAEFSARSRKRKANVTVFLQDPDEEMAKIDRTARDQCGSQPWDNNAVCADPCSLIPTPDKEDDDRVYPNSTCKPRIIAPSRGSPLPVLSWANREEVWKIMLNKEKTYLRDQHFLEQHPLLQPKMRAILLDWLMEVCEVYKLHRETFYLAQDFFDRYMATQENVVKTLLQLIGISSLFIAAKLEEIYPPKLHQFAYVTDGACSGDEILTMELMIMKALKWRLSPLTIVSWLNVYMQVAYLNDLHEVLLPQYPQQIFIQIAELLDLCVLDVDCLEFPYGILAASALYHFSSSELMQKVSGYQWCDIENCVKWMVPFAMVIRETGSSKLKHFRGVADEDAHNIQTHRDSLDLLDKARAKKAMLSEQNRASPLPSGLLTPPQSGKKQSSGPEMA", "excerpt": "as §1"}}, "data": [{"smiles": "O=C1c2ccccc2-[n+]2ccc3c([nH]c4ccccc43)c21", "values": [{"measurement": "IC50", "setting": "[1]", "value": 350, "unit": "nM"}, {"measurement": "IC50", "setting": "[2]", "value": "> 50000", "unit": "nM"}]}, {"smiles": "Cc1nc(N)sc1-c1ccnc(Nc2ccc(N3CCOCC3)cc2)n1", "note": "[2-amino-4-methyl-1,3-thiazol-5-yl)-N-[4-(morpholin-4-yl)phenyl]pyrimidin-2-amine, 5]", "values": [{"measurement": "IC50", "setting": "G1/S-specific cyclin-D1", "value": 2400, "unit": "nM"}]}, {"smiles": "CNc1nc(C)c(-c2ccnc(Nc3cccc(CN)c3)n2)s1", "note": "[Aminopyrimidine, 1]", "values": [{"measurement": "IC50", "setting": "G1/S-specific cyclin-E1", "value": 410, "unit": "nM"}, {"measurement": "IC50", "setting": "G1/S-specific cyclin-D1", "value": 230, "unit": "nM"}]}, {"smiles": "CCNc1nc(C)c(-c2ccnc(Nc3cccc(CN)c3)n2)s1", "note": "[Aminopyrimidine, 2]", "values": [{"measurement": "IC50", "setting": "G1/S-specific cyclin-E1", "value": 330, "unit": "nM"}, {"measurement": "IC50", "setting": "G1/S-specific cyclin-D1", "value": 110, "unit": "nM"}]}, {"smiles": "CNc1nc(C)c(-c2ccnc(Nc3cccc(CNC(C)=O)c3)n2)s1", "note": "[Aminopyrimidine, 3]", "values": [{"measurement": "IC50", "setting": "G1/S-specific cyclin-E1", "value": 430, "unit": "nM"}, {"measurement": "IC50", "setting": "G1/S-specific cyclin-D1", "value": 890, "unit": "nM"}]}, {"smiles": "Cc1nc(C)c(-c2ccnc(Nc3ccc(N)cc3)n2)s1", "note": "[Aminopyrimidine, 4]", "values": [{"measurement": "IC50", "setting": "G1/S-specific cyclin-E1", "value": 230, "unit": "nM"}, {"measurement": "IC50", "setting": "G1/S-specific cyclin-D1", "value": 3800, "unit": "nM"}]}, {"smiles": "Cc1nc(C)c(-c2ccnc(Nc3ccc(N4CCOCC4)cc3)n2)s1", "note": "[Aminopyrimidine, 5]", "values": [{"measurement": "IC50", "setting": "G1/S-specific cyclin-E1", "value": 2000, "unit": "nM"}, {"measurement": "IC50", "setting": "G1/S-specific cyclin-D1", "value": 4000, "unit": "nM"}]}, {"smiles": "Cc1nc(C)c(-c2ccnc(Nc3ccc(N4CCNCC4)cc3)n2)s1", "note": "[Aminopyrimidine, 6]", "values": [{"measurement": "IC50", "setting": "G1/S-specific cyclin-E1", "value": 1100, "unit": "nM"}, {"measurement": "IC50", "setting": "G1/S-specific cyclin-D1", "value": 640, "unit": "nM"}]}, {"smiles": "Cc1nc(C)c(-c2ccnc(Nc3ccc(N4CCN(C)CC4)cc3)n2)s1", "note": "[Aminopyrimidine, 7]", "values": [{"measurement": "IC50", "setting": "G1/S-specific cyclin-E1", "value": 1020, "unit": "nM"}, {"measurement": "IC50", "setting": "G1/S-specific cyclin-D1", "value": 160, "unit": "nM"}]}, {"smiles": "Cc1nc(C)c(-c2ccnc(Nc3ccc(N4CCN(CCO)CC4)cc3)n2)s1", "note": "[Aminopyrimidine, 8]", "values": [{"measurement": "IC50", "setting": "G1/S-specific cyclin-E1", "value": 2200, "unit": "nM"}, {"measurement": "IC50", "setting": "G1/S-specific cyclin-D1", "value": 430, "unit": "nM"}]}, {"smiles": "CNc1nc(C)c(-c2ccnc(Nc3ccc(N4CCNCC4)cc3)n2)s1", "note": "[Aminopyrimidine, 10]", "values": [{"measurement": "IC50", "setting": "G1/S-specific cyclin-D1", "value": 7, "unit": "nM"}]}, {"smiles": "COc1ccc(OC)c2c(=S)c3ccccc3[nH]c12", "note": "[NSC625987]", "values": [{"measurement": "IC50", "setting": "[1]", "value": 200, "unit": "nM"}, {"measurement": "IC50", "setting": "[2]", "value": "> 100000", "unit": "nM"}]}]}
